From patent publication US8410095B2, “Thiazolopyrimidinone derivatives as PI3 kinase inhibitors” (GlaxoSmithKline LLC, priority 2009, dated 2013)

These compounds were tested against T1, PI3Kδ (Homo sapiens, UniProt O00329) (assay: HTRF in vitro profiling assay for PI3K inhibition, delta isoform). Settings: in at least one experimental run; read-out: IC50 against PI3Kδ.
T1 construct: made in house
T1 sequence (O00329 whole entry, canonical isoform): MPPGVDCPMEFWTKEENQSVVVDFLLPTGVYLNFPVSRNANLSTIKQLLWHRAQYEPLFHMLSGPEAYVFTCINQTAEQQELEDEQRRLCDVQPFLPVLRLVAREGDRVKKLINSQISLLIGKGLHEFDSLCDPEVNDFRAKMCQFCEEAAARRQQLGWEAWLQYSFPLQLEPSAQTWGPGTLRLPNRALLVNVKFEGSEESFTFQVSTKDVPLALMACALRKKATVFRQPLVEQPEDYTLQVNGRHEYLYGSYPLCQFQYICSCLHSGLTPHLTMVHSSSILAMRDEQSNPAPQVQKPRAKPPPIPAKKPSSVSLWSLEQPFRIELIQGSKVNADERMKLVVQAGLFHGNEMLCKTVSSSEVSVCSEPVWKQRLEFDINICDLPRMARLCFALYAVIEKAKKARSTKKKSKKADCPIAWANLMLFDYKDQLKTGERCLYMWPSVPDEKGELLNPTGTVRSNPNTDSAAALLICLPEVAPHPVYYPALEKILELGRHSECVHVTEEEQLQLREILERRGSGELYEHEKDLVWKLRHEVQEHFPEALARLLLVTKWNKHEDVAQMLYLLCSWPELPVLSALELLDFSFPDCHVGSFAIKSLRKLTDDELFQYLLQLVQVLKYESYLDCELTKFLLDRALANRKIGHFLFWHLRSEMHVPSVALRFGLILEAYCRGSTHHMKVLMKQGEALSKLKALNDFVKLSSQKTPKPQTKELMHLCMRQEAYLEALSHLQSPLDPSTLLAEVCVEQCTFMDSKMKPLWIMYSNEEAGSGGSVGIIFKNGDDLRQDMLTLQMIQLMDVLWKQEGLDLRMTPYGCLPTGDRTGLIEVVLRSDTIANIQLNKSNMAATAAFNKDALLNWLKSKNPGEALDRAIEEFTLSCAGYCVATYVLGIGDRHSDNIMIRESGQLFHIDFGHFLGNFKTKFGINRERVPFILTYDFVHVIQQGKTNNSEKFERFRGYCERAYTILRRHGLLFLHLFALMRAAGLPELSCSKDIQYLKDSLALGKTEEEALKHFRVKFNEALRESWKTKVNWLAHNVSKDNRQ
T1 sequence (P27986 2-724 partner limits assumed): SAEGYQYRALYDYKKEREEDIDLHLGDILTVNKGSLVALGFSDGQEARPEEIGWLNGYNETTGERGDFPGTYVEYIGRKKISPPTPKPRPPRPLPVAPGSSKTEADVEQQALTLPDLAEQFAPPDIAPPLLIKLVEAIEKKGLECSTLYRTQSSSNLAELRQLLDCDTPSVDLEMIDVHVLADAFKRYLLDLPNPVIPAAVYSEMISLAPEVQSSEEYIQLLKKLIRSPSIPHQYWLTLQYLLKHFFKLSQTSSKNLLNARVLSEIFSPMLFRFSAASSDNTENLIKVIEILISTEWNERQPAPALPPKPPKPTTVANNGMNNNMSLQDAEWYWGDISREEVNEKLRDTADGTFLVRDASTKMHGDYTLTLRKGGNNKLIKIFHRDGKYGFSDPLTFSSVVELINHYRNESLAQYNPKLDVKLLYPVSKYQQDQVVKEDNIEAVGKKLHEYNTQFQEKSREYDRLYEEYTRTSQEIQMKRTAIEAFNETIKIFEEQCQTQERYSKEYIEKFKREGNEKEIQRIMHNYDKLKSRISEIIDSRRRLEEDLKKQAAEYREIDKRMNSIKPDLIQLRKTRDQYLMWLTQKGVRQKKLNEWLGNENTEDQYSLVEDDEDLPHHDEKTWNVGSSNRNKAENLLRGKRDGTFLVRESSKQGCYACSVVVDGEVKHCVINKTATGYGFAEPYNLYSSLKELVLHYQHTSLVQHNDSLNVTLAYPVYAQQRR
Type: biochemical
From the text: (§1) HTRF In vitro Profiling Assays for PI3K Inhibition
(§2) The PI3-Kinase profiling assays were developed to measure the compound-dependent inhibition of the alpha, beta, delta, and gamma isoforms of PI3Kin an in vitro catalytic assay. This assay was developed and optimized from a kit produced by Upstate (Millipore catalog #33-017). Briefly, this procedure utilizes a pre-formed HTRF (Homogeneous Time-Resolved Fluorescence energy transfer) complex between four binding partners: 1) biotinylated PIP3, 2) GST tagged pleckstrin homology (PH) domain, 3) Europium labeled anti-GST monoclonal antibody, and 4) Streptavidin-Allophycocyanin (APC). The native PIP3 produced by PI 3-Kinase activity displaces biotin-PIP3 from the PH domain, resulting in the dissociation of the HTRF complex and a decrease in the fluorescence signal. The format of this assay is the same for all 4 isoforms of PI3K; the differences lie in the concentration of enzyme used to achieve the most robust signal. The alpha and delta assays are run at […] enzyme and the gamma assay is run at 1 nM enzyme. In addition, the alpha, beta and delta assays are run with 150 mM NaCl while the gamma assay is run in the absence of NaCl. The ATP concentration is 100 uM in the alpha, beta, and delta assays and 15 uM ATP in the gamma assay. All reactions are run at 10 uM PIP2
(§3) Compounds are serially diluted (3-fold in 100% DMSO) across a 384-well polypropylene mother plate from column I to column 12 and column 13 to column 24, to yield 11 concentrations for each test compound. Columns 6 and 18 contain only DMSO. Once titrations are made, 0.05 μL is transferred to a 384-well low-volume assay plate (Greiner 784076). This assay plate contains three pharmacological controls (known PI3K inhibitors) and 3 assay controls: (1) Enzyme without inhibitor; (2) Buffer minus enzyme, and (3) Buffer minus enzyme plus native PIP3. DMSO is stamped into all wells of columns 6 and 18. PIP3 is added at 40 μM in 1× Reaction buffer (1 μL of 200 μM PIP3) to alternating rows of column 18 (wells 18 B, D, F, H, J, L, N, P). The no-enzyme control reactions are run in wells 18 A, C, E, G, I, K, M, O (0.1 μL of 100% DMSO).
The PI3-Kinase profiling assay was optimized using the HTRF kit provided by Upstate (Millipore). The assay kit contains seven reagents: 1) 4× Reaction Buffer; 2) native PIP2 (substrate); 3) Stop A (EDTA); 4) Stop B (Biotin-PIP3); 5) Detection Mix A (Streptavidin-APC); 6) Detection Mix B (Eu-labeled Anti-GST plus GST-tagged PH-domain); 7) Detection Mix C (KF). In addition, the following items were obtained or purchased: PI3Kinase (prepared by GSK BR&AD), dithiothreitol (Sigma, D-5545), Adenosine-5′-triphosphate (ATP, Teknova cat. #A0220), native PIP3 (1,2-dioctanoyl-sn-glycero-3-[phosphoinositil-3,4,5-triphosphate]tetraammonium salt (Avanti polar lipids, 850186P), DMSO (Sigma, 472301).
PI3Kinase Reaction Buffer is prepared by diluting the stock 1:4 with de-ionized water. Freshly prepared DTT is added at a final concentration of 5 mM on the day of use. Enzyme addition and compound pre-incubation are initiated by the addition of 2.5 μL of PI3K (at twice its final concentration) in 1× reaction buffer to all wells using a Multidrop Combi. Plates are incubated at room temperature for 15 minutes. Reactions are initiated by addition of 2.5 μL of 2× substrate solution (PIP2 and ATP in 1× reaction buffer) using a Multidrop Combi. Plates are incubated at room temperature for one hour. Reactions are quenched by the addition of 2.5 μL of stop solution (Stop A and Stop B pre-mixed at a ratio of 5:1, respectively) to all wells using the Multidrop Combi. […]
Work on `N#Cc1cccc(Cn2cnc(=O)c3sc(N4CCOCC4)nc32)c1` [Example 20, 3-{[2-(4-morpholinyl)-7-oxo[1,3]thiazolo[4,5-d]pyrimidin-4(7H)-yl]methyl}benzonitrile] yielded an IC50 of 8 nM.

Same assay, conditions: in at least one experimental run; read-out: pIC50 against PI3Kδ (converted)
`CCc1nc(=O)c2sc(N3CCOCC3)nc2n1Cc1cccc(Cl)c1C` [Example 75, 4-[(3-chloro-2-methylphenyl)methyl]-5-ethyl-2-(4-morpholinyl)[1,3]thiazolo[4,5-d]pyrimidin-7(4H)-one] showed an IC50 of 0.158 nM.
With `Cc1c(Cn2c(-c3ccccc3)nc(=O)c3sc(N4CCOCC4)nc32)cccc1C(F)(F)F` [Example 79, 4-{[2-methyl-3-(trifluoromethyl)phenyl]methyl}-2-(4-morpholinyl)-5-phenyl[1,3]thiazolo[4,5-d]pyrimidin-7(4H)-one] the IC50 was 50.1 nM.
`Cc1c(Cl)cccc1Cn1c(C2CCCO2)nc(=O)c2sc(N3CCOCC3)nc21` (stereo not drawn) [Example 83, 4-[(3-chloro-2-methylphenyl)methyl]-2-(4-morpholinyl)-5-(tetrahydro-2-furanyl)[1,3]thiazolo[4,5-d]pyrimidin-7(4H)-one] was tested, and the IC50 was 1.26 nM.
Compound `Cc1c(Cl)cccc1Cn1c(CO)nc(=O)c2sc(N3CCOCC3)nc21` [Example 84, 4-[(3-chloro-2-methylphenyl)methyl]-5-(hydroxymethyl)-2-(4-morpholinyl)[1,3]thiazolo[4,5-d]pyrimidin-7(4H)-one] has an IC50 of 0.126 nM.
`Cc1c(Cl)cccc1Cn1c(CN)nc(=O)c2sc(N3CCOCC3)nc21` [Example 111, 5-(aminomethyl)-4-[(3-chloro-2-methylphenyl)methyl]-2-(4-morpholinyl)[1.3]thiazolo[4,5-d]pyrimidin-7(4H)-one] showed an IC50 of 2.51 nM.

What follows are compounds tested against T2, PI3Kβ (Homo sapiens, UniProt P42338) (assay: HTRF in vitro profiling assay for PI3K inhibition, beta isoform). Settings: in at least one experimental run; read-out: IC50 against PI3Kβ.
T2 construct: made in house
T2 sequence (P42338 whole entry, canonical isoform): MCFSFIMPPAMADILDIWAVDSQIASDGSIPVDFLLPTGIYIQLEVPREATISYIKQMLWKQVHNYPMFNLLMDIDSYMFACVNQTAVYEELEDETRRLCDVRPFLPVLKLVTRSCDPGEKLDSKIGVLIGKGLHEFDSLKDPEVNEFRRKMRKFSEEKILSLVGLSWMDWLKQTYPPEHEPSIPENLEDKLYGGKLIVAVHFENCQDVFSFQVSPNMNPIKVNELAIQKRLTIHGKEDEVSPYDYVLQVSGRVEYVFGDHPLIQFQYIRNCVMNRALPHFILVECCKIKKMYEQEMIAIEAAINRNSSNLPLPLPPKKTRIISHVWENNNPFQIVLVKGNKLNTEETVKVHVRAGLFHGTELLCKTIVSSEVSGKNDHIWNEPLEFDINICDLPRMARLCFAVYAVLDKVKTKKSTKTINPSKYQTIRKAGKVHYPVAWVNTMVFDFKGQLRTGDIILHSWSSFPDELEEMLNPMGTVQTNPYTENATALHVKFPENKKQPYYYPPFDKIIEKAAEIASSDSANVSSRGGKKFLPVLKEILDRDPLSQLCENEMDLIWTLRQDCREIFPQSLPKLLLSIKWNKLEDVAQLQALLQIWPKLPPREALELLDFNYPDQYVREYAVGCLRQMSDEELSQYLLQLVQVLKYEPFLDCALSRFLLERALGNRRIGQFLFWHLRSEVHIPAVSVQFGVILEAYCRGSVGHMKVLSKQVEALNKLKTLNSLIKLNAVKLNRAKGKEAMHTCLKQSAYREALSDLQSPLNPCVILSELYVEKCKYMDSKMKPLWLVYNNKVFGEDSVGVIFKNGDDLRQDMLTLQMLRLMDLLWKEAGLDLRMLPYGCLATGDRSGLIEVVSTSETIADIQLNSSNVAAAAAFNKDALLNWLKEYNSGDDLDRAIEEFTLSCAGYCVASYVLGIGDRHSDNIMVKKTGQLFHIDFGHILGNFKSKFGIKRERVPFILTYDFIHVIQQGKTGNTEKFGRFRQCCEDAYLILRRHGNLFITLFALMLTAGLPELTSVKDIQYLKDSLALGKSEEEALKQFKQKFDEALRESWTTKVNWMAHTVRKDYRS
T2 sequence (P27986 whole entry partner, canonical isoform): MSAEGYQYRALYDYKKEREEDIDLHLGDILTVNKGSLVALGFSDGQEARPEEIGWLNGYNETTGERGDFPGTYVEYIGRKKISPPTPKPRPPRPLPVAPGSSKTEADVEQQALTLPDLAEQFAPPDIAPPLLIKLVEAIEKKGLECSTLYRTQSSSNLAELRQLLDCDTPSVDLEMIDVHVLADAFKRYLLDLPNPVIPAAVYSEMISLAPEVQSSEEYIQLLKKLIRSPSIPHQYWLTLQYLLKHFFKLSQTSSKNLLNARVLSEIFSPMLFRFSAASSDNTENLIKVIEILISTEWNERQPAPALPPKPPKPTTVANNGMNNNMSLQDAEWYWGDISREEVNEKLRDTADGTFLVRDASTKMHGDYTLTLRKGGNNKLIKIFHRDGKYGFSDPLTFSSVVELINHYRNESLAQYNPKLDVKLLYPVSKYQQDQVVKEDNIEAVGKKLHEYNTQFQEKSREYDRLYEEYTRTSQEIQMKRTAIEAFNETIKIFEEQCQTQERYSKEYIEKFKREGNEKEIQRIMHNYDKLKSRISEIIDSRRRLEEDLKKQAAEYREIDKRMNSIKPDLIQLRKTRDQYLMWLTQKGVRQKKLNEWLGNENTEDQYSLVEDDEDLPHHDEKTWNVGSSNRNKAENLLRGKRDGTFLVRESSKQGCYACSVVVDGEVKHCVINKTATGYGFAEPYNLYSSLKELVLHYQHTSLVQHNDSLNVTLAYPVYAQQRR
Type: biochemical
From the text: as §1, §2
as §3, with “The no-enzyme control reactions are run in wells 18 A, C, E, G, I, K, M, O (0.1 μL of 100% DMSO).” left out
In the case of `O=c1ncn(Cc2ccccc2C(F)(F)F)c2nc(N3CCOCC3)sc12` [Example 1, 2-(4-morpholinyl)-4-{[2(trifluoromethyl)phenyl]methyl}[1,3]thiazolo[4,5-d]pyrimidin-7(4H)-one], the IC50 is reported as 320 nM.
`Cc1c(Cl)cccc1Cn1cnc(=O)c2sc(N3CCOCC3)nc21` [Example 3, 4-[(3-chloro-2-methylphenyl)methyl]-2-(4-morpholinyl)[1,3]thiazolo[4,5-d]pyrimidin-7(4H)-one] was tested, and the IC50 was 400 nM.
For `Cc1c(Cn2c(C)nc(=O)c3sc(N4CCOCC4)nc32)cccc1C(F)(F)F` [Example 59, 5-methyl-4-{[2-methyl-3-(trifluoromethyl)phenyl]methyl}-2-(4-morpholinyl)[1,3]thiazolo[4,5-d]pyrimidin-7(4H)-one], the IC50 was 0.5 nM.
